Laboratory results: patent US8084649B2, “Herbicides” (Syngenta Crop Protection, inc., priority 2007, dated 2011)

How the values were obtained:
Assay type in all cases: in vivo
[1] = tested on: Alopecurus myosuroides (ALOMY); test: Pre-emergence herbicidal activity, glasshouse pot test; details: Alopecurus myosuroides, 480 h, rate 500 g/ha, evaluated after 20 days, read-out: Pre-emergence activity, ALOMY (100=total damage to plant; 0=no damage to plant)
Procedure: (§1) Monocotyledonous and dicotyledonous test plants were sown in sterilised standard soil in pots. After cultivation for one day (pre-emergence) or after 10 days cultivation (post-emergence) under controlled conditions in a glasshouse, the plants were sprayed with an aqueous spray solution derived from the formulation of the technical active ingredient in 0.6 ml acetone and 45 ml formulation solution containing 10.6% Emulsogen EL (Registry number 61791-12-6), 42.2% N-methylpyrrolidone, 42.2% dipropylene glycol monomethyl ether (Registry number 34590-94-8) and 0.2% X-77 (Registry number 11097-66-8). The test plants were then grown in a greenhouse under optimum conditions until, 14 or 15 days later for post-emergence and 20 days for pre-emergence, the test was evaluated (100=total damage to plant; 0=no damage to plant). Alopecurus myosuroides (ALOMY), Avena fatua (AVEFA), Lolium perenne (LOLPE), Setaria faberi (SETFA), Digitaria sanguinalis (DIGSA), Echinochloa crus-galli (ECHCG) Pre-Emergence Activity

[2] = tested on: Avena fatua (AVEFA); test: as above; details: Avena fatua, 480 h, rate 500 g/ha, evaluated after 20 days, read-out: Pre-emergence activity, AVEFA (100=total damage to plant; 0=no damage to plant)
Procedure: as §1

[3] = tested on: Digitaria sanguinalis (DIGSA); test: as above; details: Digitaria sanguinalis, 480 h, rate 500 g/ha, evaluated after 20 days, read-out: Pre-emergence activity, DIGSA (100=total damage to plant; 0=no damage to plant)
Procedure: as §1

[4] = tested on: Echinochloa crus-galli (ECHCG); test: as above; details: Echinochloa crus-galli, 480 h, rate 500 g/ha, evaluated after 20 days, read-out: Pre-emergence activity, ECHCG (100=total damage to plant; 0=no damage to plant)
Procedure: as §1

[5] = tested on: Lolium perenne (LOLPE); test: as above; details: Lolium perenne, 480 h, rate 500 g/ha, evaluated after 20 days, read-out: Pre-emergence activity, LOLPE (100=total damage to plant; 0=no damage to plant)
Procedure: as §1

[6] = tested on: Setaria faberi (SETFA); test: as above; details: Setaria faberi, 480 h, rate 500 g/ha, evaluated after 20 days, read-out: Pre-emergence activity, SETFA (100=total damage to plant; 0=no damage to plant)
Procedure: as §1

[7] = tested on: Alopecurus myosuroides (ALOMY); test: Post-emergence herbicidal activity, glasshouse pot test; details: Alopecurus myosuroides, evaluated after 14 or 15 days, read-out: Post-emergence activity, ALOMY (100=total damage to plant; 0=no damage to plant); for pest or weed control at 125 g/ha: rate 125 g/ha; for pest or weed control at 500 g/ha: rate 500 g/ha
Procedure: as §1, with “Post-Emergence” for “Pre-Emergence”

[8] = tested on: Avena fatua (AVEFA); test: as above; details: Avena fatua, evaluated after 14 or 15 days, read-out: Post-emergence activity, AVEFA (100=total damage to plant; 0=no damage to plant); for pest or weed control at 125 g/ha: rate 125 g/ha; for pest or weed control at 500 g/ha: rate 500 g/ha
Procedure: as §1, with “Post-Emergence” for “Pre-Emergence”

[9] = tested on: Digitaria sanguinalis (DIGSA); test: as above; details: Digitaria sanguinalis, evaluated after 14 or 15 days, read-out: Post-emergence activity, DIGSA (100=total damage to plant; 0=no damage to plant); for pest or weed control at 125 g/ha: rate 125 g/ha; for pest or weed control at 500 g/ha: rate 500 g/ha
Procedure: as §1, with “Post-Emergence” for “Pre-Emergence”

[10] = tested on: Echinochloa crus-galli (ECHCG); test: as above; details: Echinochloa crus-galli, evaluated after 14 or 15 days, read-out: Post-emergence activity, ECHCG (100=total damage to plant; 0=no damage to plant); for pest or weed control at 125 g/ha: rate 125 g/ha; for pest or weed control at 500 g/ha: rate 500 g/ha
Procedure: as §1, with “Post-Emergence” for “Pre-Emergence”

[11] = tested on: Lolium perenne (LOLPE); test: as above; details: Lolium perenne, evaluated after 14 or 15 days, read-out: Post-emergence activity, LOLPE (100=total damage to plant; 0=no damage to plant); for pest or weed control at 125 g/ha: rate 125 g/ha; for pest or weed control at 500 g/ha: rate 500 g/ha
Procedure: as §1, with “Post-Emergence” for “Pre-Emergence”

[12] = tested on: Setaria faberi (SETFA); test: as above; details: Setaria faberi, evaluated after 14 or 15 days, read-out: Post-emergence activity, SETFA (100=total damage to plant; 0=no damage to plant); for pest or weed control at 125 g/ha: rate 125 g/ha; for pest or weed control at 500 g/ha: rate 500 g/ha
Procedure: as §1, with “Post-Emergence” for “Pre-Emergence”

Row | Compound | pest or weed control at 500 g/ha [1] | pest or weed control at 500 g/ha [2] | pest or weed control at 500 g/ha [3] | pest or weed control at 500 g/ha [4] | pest or weed control at 500 g/ha [5] | pest or weed control at 500 g/ha [6] | pest or weed control at 125 g/ha [7] | pest or weed control at 125 g/ha [8] | pest or weed control at 125 g/ha [9] | pest or weed control at 125 g/ha [10] | pest or weed control at 125 g/ha [11] | pest or weed control at 125 g/ha [12] | pest or weed control at 500 g/ha [7] | pest or weed control at 500 g/ha [8] | pest or weed control at 500 g/ha [9] | pest or weed control at 500 g/ha [10] | pest or weed control at 500 g/ha [11] | pest or weed control at 500 g/ha [12]
1 | CCc1cc(C)cc(CC)c1C1=C(OC(C)=O)CC2(CCOCC2)CC1=O [Compound P1] | 100% | 100% | 100% | 100% | 100% | 100% | 50% | 60% | 50% | 50% | 30% | 30% |  |  |  |  |  | 
2 | CCc1cc(C)cc(CC)c1C1=C(OC(=O)C(C)C)CC2(CCOCC2)CC1=O [Compound P3] | 100% | 100% | 100% | 100% | 100% | 100% | 100% | 100% | 90% | 100% | 100% | 90% |  |  |  |  |  | 
3 | CCc1cc(C)cc(CC)c1C1=C(OC(=O)C(C)(C)C)CC2(CCOCC2)CC1=O [Compound P4] | 100% | 100% | 100% | 90% | 100% | 100% |  |  |  |  |  |  | 100% | 90% | 80% | 100% | 100% | 80%
4 | CCc1cc(C)cc(CC)c1C1=C(OC(=O)CC(C)C)CC2(CCOCC2)CC1=O [Compound P5] | 100% | 100% | 100% | 100% | 100% | 100% | 100% | 100% | 100% | 100% | 100% | 90% |  |  |  |  |  | 
5 | CCc1cc(C)cc(CC)c1C1=C(OC(=O)Cc2ccc(F)cc2)CC2(CCOCC2)CC1=O [Compound P7] | 40% | 80% | 100% | 70% | 100% | 100% | 80% | 80% | 80% | 80% | 100% | 80% |  |  |  |  |  | 
6 | CCc1cc(C)cc(CC)c1C1=C(OC(=O)COC)CC2(CCOCC2)CC1=O [Compound P8] | 100% | 90% | 100% | 100% | 100% | 100% | 90% | 100% | 100% | 100% | 90% | 90% |  |  |  |  |  | 
7 | CCc1cc(C)cc(CC)c1C1=C(OC(=O)C2CC2)CC2(CCOCC2)CC1=O [Compound P9] | 100% | 100% | 100% | 100% | 100% | 100% | 80% | 100% | 90% | 100% | 90% | 90% |  |  |  |  |  | 
8 | CCc1cc(C)cc(CC)c1C1=C(OC(=O)C(C)(C)C)CC(C(C)(C)SC)CC1=O (stereo not shown) [Compound P52] | 100% | 100% | 100% | 100% |  | 100% |  |  |  |  |  |  | 100% | 90% | 90% | 90% | 100% | 90%
9 | CCSC(C)CC1CC(=O)C(c2c(C)cc(C)cc2C)=C(O)C1 (stereo not shown) [Compound T9] | 30% | 30% | 40% |  | 0% |  |  |  |  |  |  |  | 50% | 50% | 90% | 80% | 50% | 80%
10 | CCc1cc(C)cc(CC)c1C1=C(O)CC2(CCSCC2)CC1=O [Compound T11] | 80% |  | 90% | 80% | 100% | 90% |  |  |  |  |  |  | 80% | 80% | 90% | 90% | 70% | 90%
11 | CCCS(=O)(=O)C(C)CC1CC(=O)C(c2c(CC)cc(C)cc2CC)=C(O)C1 (stereo not shown) [Compound T36] | 100% | 90% | 100% |  | 100% | 100% |  |  |  |  |  |  | 90% | 90% | 70% | 100% | 90% | 50%
